# Experimental data reported in patent publication US10508088B2, “Methods using HDAC11 inhibitors” (FORMA Therapeutics, Inc., priority 2016, dated 2019).
# Target: Recombinant N-terminal GST tag full-length human HDAC11 (Homo sapiens (Human), UniProt Q96DB2)
# Test: Probe binding HDAC11 assay, time resolved fluorescence (TRF)
# Conditions: read-out: HDAC11 IC50 Range
# Description: The probe binding HDAC11 assay was performed using a time resolved fluorescence (TRF) assay format. Recombinant N-terminal GST tag full-length human HDAC11 was expressed and purified from baculovirus in Sf9 insect cells (SignalChem, # H93-30G-1000). Each assay was performed in 1536 black well microplates (Corning, #3936) in a final volume of 8 μL in assay buffer containing 50 mM HEPES (pH 7.5), 50 mM KCl, 50 mM NaCl, 0.5 mM GSH (L-Glutathione reduced, Sigma #G4251), 0.03% BGG (0.22 μM filtered, Sigma, #G7516-25G), and 0.01% Triton X-100 (Sigma, #T9284-10L). 100 nL of 10-point, 3-fold serial dilution in DMSO was pre-dispensed into respective wells of 1536 assay plates for a final test concentration range of 25 μM to 1.3 nM respectively. The final concentration in the assay of HDAC11 and probe (a fluorescein labeled HDAC 11 inhibitor) was 2.5 nM and 20 nM respectively. 4 μL of 2× probe and 2× anti-GST Terbium (Cisbio, #61GSTXLB) was added to assay plates followed by 4 μL of 2×HDAC11. Plates were incubated for 16 hours at room temperature before time resolved fluorescence was read on the Envision (Excitation at 340 nm, and Emission at 485 nm and 535 nm, Perkin Elmer).
# Data from HDAC11 Assays were reported as percent inhibition (inh) compared with control wells based on the following equation: % inh=1−((FLU−AveLow)/(AveHigh−AveLow)) where FLU=measured time resolved fluorescence. AveLow=average time resolved fluorescence of no enzyme control (n=32). AveHigh=average time resolved fluorescence of DMSO control (n=32). IC50 values were determined by curve fitting of the standard 4 parameter logistic fitting algorithm included in the Activity Base software package: IDBS XE Designer Model205. Data is fitted using the Levenburg Marquardt algorithm.
# Sequence of Recombinant N-terminal GST tag full-length human HDAC11 (Q96DB2 whole entry): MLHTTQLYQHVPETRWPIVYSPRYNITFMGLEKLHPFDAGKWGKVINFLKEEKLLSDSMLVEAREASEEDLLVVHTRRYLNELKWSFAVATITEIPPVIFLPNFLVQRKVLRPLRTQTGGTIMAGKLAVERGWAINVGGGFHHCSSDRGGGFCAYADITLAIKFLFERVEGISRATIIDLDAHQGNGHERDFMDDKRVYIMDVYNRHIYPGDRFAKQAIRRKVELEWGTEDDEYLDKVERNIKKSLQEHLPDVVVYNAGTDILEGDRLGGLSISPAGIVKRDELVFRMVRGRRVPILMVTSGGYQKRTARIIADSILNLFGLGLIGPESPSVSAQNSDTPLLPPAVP
row,Structure (SMILES),IC50
1,"O=C(NO)c1cccc(Nc2nc3cc(Cl)c(Cl)cc3o2)c1 [Example 1-1, 3-(5,6-dichlorobenzo[d]oxazol-2-ylamino)-N-hydroxybenzamide]",< 500 nM
2,"N#Cc1cc2oc(Nc3cccc(C(=O)NO)c3)nc2cc1C(F)(F)F [Example 2-1, 3-(6-cyano-5-(trifluoromethyl)benzo[d]oxazol-2-ylamino)-N-hydroxybenzamide]",< 500 nM
3,"O=C(NO)c1cccc(Nc2nc3cc(C(F)(F)F)c(-c4ccccc4)cc3o2)c1 [Example 3-1, N-hydroxy-3-(6-phenyl-5-(trifluoromethyl)benzo[d]oxazol-2-ylamino)benzamide]",< 500 nM
4,"O=C(NO)c1cc(Nc2nc3cc(Cl)c(Cl)cc3o2)ccc1F [Example 4-1, 5-(5,6-dichlorobenzo[d]oxazol-2-ylamino)-2-fluoro-N-hydroxybenzamide]",< 500 nM
5,"O=C(NO)c1cccc(Nc2nc3cc(Cl)c(Cl)cc3o2)c1F [Example 4-2, 3-((5,6-dichlorobenzo[d]oxazol-2-yl)amino)-2-fluoro-N-hydroxybenzamide]",< 500 nM
6,"O=C(NO)c1ccc(F)c(Nc2nc3cc(Cl)c(Cl)cc3o2)c1 [Example 4-3, 3-((5,6-dichlorobenzo[d]oxazol-2-yl)amino)-4-fluoro-N-hydroxybenzamide]",< 500 nM
7,"O=C(NO)c1cncc(Nc2nc3cc(Cl)c(Cl)cc3o2)c1 [Example 4-5, 5-((5,6-dichlorobenzo[d]oxazol-2-yl)amino)-N-hydroxynicotinamide]",< 500 nM
8,"O=C(NO)c1cc(Nc2nc3cc(Cl)c(Cl)cc3o2)ccn1 [Example 4-6, 4-((5,6-dichlorobenzo[d]oxazol-2-yl)amino)-N-hydroxypicolinamide]",< 500 nM
9,"O=C(NO)c1ccnc(Nc2nc3cc(Cl)c(Cl)cc3o2)c1 [Example 4-7, 2-((5,6-dichlorobenzo[d]oxazol-2-yl)amino)-N-hydroxyisonicotinamide]",< 500 nM
10,"O=C(NO)c1ccnc(Nc2nc3cc(Cl)c(Cl)cc3o2)n1 [Example 4-8, 2-((5,6-dichlorobenzo[d]oxazol-2-yl)amino)-N-hydroxypyrimidine-4-carboxamide]",> 1000 nM
11,"O=C(NO)c1cccc(Nc2nc3cc(Cl)c(Cl)cc3s2)c1 [Example 5-1, 3-(5,6-dichlorobenzo[d]thiazol-2-ylamino)-N-hydroxybenzamide 2,2,2-trifluoroacetate]",< 500 nM
12,"CS(=O)(=O)c1cc2nc(Nc3cccc(C(=O)NO)c3)[nH]c2cc1C#N [Example 6-1, 3-(5-cyano-6-(methylsulfonyl)-1H-benzo[d]imidazol-2-ylamino)-N-hydroxybenzamide]",500 to 1000 nM
13,"CS(=O)(=O)c1cc2nc(Nc3cccc(C(=O)NO)c3)[nH]c2cc1C(F)(F)F [Example 7-1, N-hydroxy-3-(6-(methylsulfonyl)-5-(trifluoromethyl)-1H-benzo[d]imidazol-2-ylamino)benzamide]",< 500 nM
14,"O=C(NO)c1cccc(Nc2nc3ccccc3[nH]2)c1 [Example 8-1, 3-(1H-benzo[d]imidazol-2-ylamino)-N-hydroxybenzamide]",> 1000 nM
15,"CN(c1cccc(C(=O)NO)c1)c1nc2cc(C#N)c(C(F)(F)F)cc2[nH]1 [Example 9-1, 3-((5-cyano-6-(trifluoromethyl)-1H-benzo[d]imidazol-2-yl)(methyl)amino)-N-hydroxybenzamide]",< 500 nM
16,"Cn1c(Nc2cccc(C(=O)NO)c2)nc2cc(C#N)c(C(F)(F)F)cc21 [Example 10-1, 3-(5-cyano-1-methyl-6-(trifluoromethyl)-1H-benzo[d]imidazol-2-ylamino)-N-hydroxybenzamide]",< 500 nM
17,"Cn1c(Nc2cccc(C(=O)NO)c2)nc2cc(C(F)(F)F)c(C#N)cc21 [Example 11-1, 3-(6-cyano-1-methyl-5-(trifluoromethyl)-1H-benzo[d]imidazol-2-ylamino)-N-hydroxybenzamide]",< 500 nM
18,"Cn1c(Nc2cccc(C(=O)NO)c2)nc2cc(F)c(C#N)cc21 [Example 12-1, 3-(6-cyano-5-fluoro-1-methyl-1H-benzo[d]imidazol-2-ylamino)-N-hydroxybenzamide]",< 500 nM
19,"Cn1c(Nc2cccc(C(=O)NO)c2)nc2cc(Cl)c(Cl)cc21 [Example 13-1, 3-(5,6-dichloro-1-methyl-1H-benzo[d]imidazol-2-ylamino)-N-hydroxybenzamide]",< 500 nM
20,"CC(C)n1c(Nc2cccc(C(=O)NO)c2)nc2cc(C(F)(F)F)c(C#N)cc21 [Example 14-1, 3-(6-cyano-1-isopropyl-5-(trifluoromethyl)-1H-benzo[d]imidazol-2-ylamino)-N-hydroxybenzamide]",< 500 nM
21,"CC(C)n1c(Nc2cccc(C(=O)NO)c2)nc2cc(C#N)c(C(F)(F)F)cc21 [Example 15-1, 3-(5-cyano-1-isopropyl-6-(trifluoromethyl)-1H-benzo[d]imidazol-2-ylamino)-N-hydroxybenzamide]",< 500 nM
22,"CC(C)n1c(Nc2cccc(C(=O)NO)c2)nc2cc(C(F)(F)F)c(-c3ccccc3)cc21 [Example 16-1, N-hydroxy-3-(1-isopropyl-6-phenyl-5-(trifluoromethyl)-1H-benzo[d]imidazol-2-ylamino)benzamide]",< 500 nM
23,"CC(C)n1c(Nc2cccc(C(=O)NO)c2)nc2cc(-c3ccccc3)c(C(F)(F)F)cc21 [Example 16-2, N-hydroxy-3-((1-isopropyl-5-phenyl-6-(trifluoromethyl)-1H-benzo[d]imidazol-2-yl)amino)benzamide]",< 500 nM
24,"CC(C)n1c(Nc2cccc(C(=O)NO)c2)nc2cc(Cl)c(Cl)cc21 [Example 17-1, 3-(5,6-dichloro-1-isopropyl-1H-benzo[d]imidazol-2-ylamino)-N-hydroxybenzamide]",< 500 nM
25,"COCCn1c(Nc2cccc(C(=O)NO)c2)nc2cc(C(F)(F)F)c(C#N)cc21 [Example 18-1, 3-(6-cyano-1-(2-methoxyethyl)-5-(trifluoromethyl)-1H-benzo[d]imidazol-2-ylamino)-N-hydroxybenzamide]",< 500 nM
26,"COCCn1c(Nc2cccc(C(=O)NO)c2)nc2cc(C#N)c(C(F)(F)F)cc21 [Example 19-1, 3-(5-cyano-1-(2-methoxyethyl)-6-(trifluoromethyl)-1H-benzo[d]imidazol-2-ylamino)-N-hydroxybenzamide]",< 500 nM
27,"COCCn1c(Nc2cccc(C(=O)NO)c2)nc2cc(C(F)(F)F)c(-c3ccccc3)cc21 [Example 20-1, N-hydroxy-3-(1-(2-methoxyethyl)-6-phenyl-5-(trifluoromethyl)-1H-benzo[d]imidazol-2-ylamino)benzamide]",< 500 nM
28,"COCCn1c(Nc2cccc(C(=O)NO)c2)nc2cc(-c3ccccc3)c(C(F)(F)F)cc21 [Example 20-2, N-hydroxy-3-((1-(2-methoxyethyl)-5-phenyl-6-(trifluoromethyl)-1H-benzo[d]imidazol-2-yl)amino)benzamide]",< 500 nM
29,"N#Cc1cc2nc(Nc3cccc(C(=O)NO)c3)n(CCCCCN)c2cc1C(F)(F)F [Example 21-1, 3-((1-(5-aminopentyl)-5-cyano-6-(trifluoromethyl)-1H-benzo[d]imidazol-2-yl)amino)-N-hydroxybenzamide]",< 500 nM
30,"NCCCCCn1c(Nc2cccc(C(=O)NO)c2)nc2cc(Cl)c(Cl)cc21 [Example 22-1, 3-((1-(5-aminopentyl)-5,6-dichloro-1H-benzo[d]imidazol-2-yl)amino)-N-hydroxybenzamide]",< 500 nM
